Experimental findings from patent US5990137A, “Method of inhibiting NADPH oxidase” (Idun Pharmaceuticals, Inc., priority 1998, dated 1999) are described below.

Structures are written as SMILES.

Data set [1] relates to isolated neutrophils (opsonized zymosan-stimulated oxidative burst). Description: Measurement of chemiluminescence of isolated neutrophils (neutrophil burst, Lucigenin). The note with it: for IC50 / Neutrophil Burst IC50 (Lucigenin): 14 min, opsonized zymosan, lucigenin, 37° C. The class given is cell-based. Here is the method:
Whole blood (150 ml) was anticoagulated with Acid Citrate Dextrose (ACD) using a ratio of 1:5 ACD to blood.
All steps are to be performed using polypropylene plastic ware.
a. Whole blood (60 ml) was added to each of three 100 ml polypropylene graduated cylinders containing 30 ml of […]. The cylinders were covered securely with Parafilm. The blood was allowed to sediment for approximately 1 hour at room temperature.
b. The turbid straw-colored layer was harvested from the top of the cylinders into 50 ml conical polypropylene tubes. The white blood cells were pelleted by centrifugation at 240×g (Sorvall at 1200 rpm) for 12 min. at 4° C. with the brake on low.
c. The supernatant was removed by aspiration and the pooled pellet resuspended in 4-50 ml cold PBS (w/o Ca, Mg). It was then centrifuged at 240×g (Sorvall at 1200 rpm) for 6 min. at 4° C. with the brake on high.
a. The supernatant was aspirated and the pellet resuspended in 12 ml of cold cell culture-grade water. The pellet was titrated gently with a pipet for exactly 30 seconds then 4 ml of cold 0.6 M KCl was added. It was then QSed to 50 ml with cold PBS (w/o Ca, Mg) and centrifuged at 300×g (Sorvall TY 6000D at 1400 rpm) for 6 min. at 4° C. with the brake on high.
b. Step 2.a. was repeated once more.
a. The supernatant was aspirated and the cells were resuspended in 2.5 ml cold PBS (w/o Ca, Mg). The cell suspension was carefully layered over 3 ml Ficoll-Hypaque in a 15 ml polypropylene conical tube. It was then centrifuged at 400×g (Sorvall at 1900 rpm) for 30 min. at 4° C. with the brake on low.
b. Aspiration occurred down to the neutrophil pellet. The pellet was resuspended fin cold PBS (w/o Ca, Mg) and transferred to a 50 ml conical tube. It was then QSed to 50 ml with cold PBS (w/o Ca, Mg) and centrifuged at 300×g (Sorvall at 1400 rpm) for 6 min. at 4° C. with the brake on high.
d. The supernatant was aspirated and the pellet resuspended in 50 ml cold PBS (w/o Ca, Mg) and centrifuged at 300×g (Sorvall at 1400 rpm) for 6 min. with the brake on high.
e. The supernatant was aspirated and the neutrophil pellet resuspended in 4.0 ml cold PBS (w/o Ca, Mg). It was kept on ice. Trypan blue (10 μl) was diluted (1:40) and the cells were counted using a hemacytometer. The cell number and viability by Trypan […] exclusion were determined and the results recorded. The cells were diluted to 5.0×10^6 cells/ml with cold PBS-G (with Ca, Mg) prior to plating for the assay.
2. […] The suspension was centrifuged and the particles resuspended in 7 ml of PBS-G (with Ca, Mg)(18 mg/ml). It was stored on ice until used (briefly vortexed prior to pipetting).
4. PBS-G (10 μl) (with Ca, Mg) was added to the wells in a white 96 well plate.
6. The compound dilutions (10 μl) were added to the appropriate wells.
7. The cell prep was diluted to 5.0×10^6 cells/ml with PBS-G (with Ca, Mg) in a separate multipipette trough.
8. The neutrophil suspension (20 μl) was added to the appropriate wells.
9. The plate was incubated at 37° C. for three minutes.
10. Zymosan (10 μl of 18 mg/ml) was added to the appropriate wells.
11. The plate was read on the luminometer (Labsystems Luminoskan, Needham Heights, Mass.) for 14 min. at 37° C. on the kinetic mode and the results recorded using the software DeltaSoft.
12. The plate data was exported into Excel to determine percent of control and derive the means and standard deviations for the data. The IC50 was determined graphically from the data and plotted using SigmaPlot. For cases where one concentration (50 μM) was tested, percent inhibition was compared to that seen with 50 μM apocynin.
13. The results are set forth below in Table 1 as "Neutrophil Burst IC50 (Lucigenin)". The results for 50 μM inhibition in the single assay are reported as "Neutrophil Burst Screen Value (% @ 50 μM)".

For the next data set, the system named is Jurkat cells. The data set can be described thus: Cytotoxicity assay employing Jurkat cells (MTT). The data set is classed as cell-based. Conditions: Jurkat clone E6-1, MTT, 37° C. overnight. Here is the method: This Assay was performed as set forth in Hansen et al., Journal of Immunological Methods, 119:203-210 (19930; Mosmann, Journal of Immunological Methods, 65:55-63 (1983); and Slater et al., Biochem. Ciophys. Acta, 77:383 (1963); except as noted below.
Compounds from the following Examples were tested for cytotoxicity using MTT (i.e., 3-[4,5-Dimethylthiazol-2-yl]-2,5-diphenyltetrazolium bromide; Thiazolyl Blue (Sigma, St. Louis, Mo.)).
MTT was dissolved in basal culture media at a concentration of 5 mg/ml. If necessary, it was briefly warmed at 37° C. to fully dissolve, passed through a sterile filter, and aliquoted and stored at -20° C. until use.
The Extraction Buffer used was a solution composed of 20% SDS, 2.5% Acetic Acid (80% 6 stock solution), 2.5% 1N Hcl, 50% Dimethylformamide/50% dissolved in distilled water, SDS was dissolved into buffer components with gentle heating and stirring and the resultant solution was filtered and stored until use.
The MTT solution was added in an amount equal to 10% of the culture volume to each well in a 96-well plate containing 100,000 Jurkat cells/well.
The wells were then incubated for 0.5 to 2 hours in standard culture conditions. A volume of extraction buffer equal to the culture volume was added. The 96-well plate was then sealed. The formazan crystals were allowed to extract at 37° C. for four hours. The plate was read on a spectrophotometer [Spectramax 250, Molecular Devices, Sunnyvale, Calif.] at an absorbance wavelength of 560 nm. (The background absorbance measured at 650 nm was subtracted from the value measured at 560 nm.)
The Jurkat cells (Jurkat clone E6-1) were grown using standard conditions supplied by ATCC (American Type Culture Collection--Rockville, Md.).
The compounds diluted in medium (RPMI 1640 plus 10% fetal bovine serum) stock solution of 100 μM, then this stock solution was further diluted 3-fold before testing in the instant assay.
2-Hydroxy-3-methoxy-E-nitrostyrene tested at 100 μM as death control cells, incubated under the above conditions at 37° C. overnight.
The Extraction Buffer (100 μl) was added to each well and the resultant suspension was incubated 4 hours at 37° C.
The results from this procedure are set forth above in Table 1 in the column marked "Cytotox (MTT/Jurkat)". […] Toxicity was rated "3" if dead cells and >50% reduction in MTT absorbance at 1 μM test compound.

The next data set addresses T1, Xanthine oxidase (Bos taurus, UniProt P80457).
T1 construct: purchased Sigma x-1875; host or cells: buttermilk
The data set can be described thus: Xanthine oxidase assay (superoxide by hypoxanthine/xanthine oxidase, Lucigenin). The note with it: hypoxanthine 150 μM, buttermilk xanthine oxidase, 37° C.; for IC50: read-out: Xanthine Oxidase Inhibition IC50 (Integral). The class given is biochemical.

T1 sequence (P80457 whole entry): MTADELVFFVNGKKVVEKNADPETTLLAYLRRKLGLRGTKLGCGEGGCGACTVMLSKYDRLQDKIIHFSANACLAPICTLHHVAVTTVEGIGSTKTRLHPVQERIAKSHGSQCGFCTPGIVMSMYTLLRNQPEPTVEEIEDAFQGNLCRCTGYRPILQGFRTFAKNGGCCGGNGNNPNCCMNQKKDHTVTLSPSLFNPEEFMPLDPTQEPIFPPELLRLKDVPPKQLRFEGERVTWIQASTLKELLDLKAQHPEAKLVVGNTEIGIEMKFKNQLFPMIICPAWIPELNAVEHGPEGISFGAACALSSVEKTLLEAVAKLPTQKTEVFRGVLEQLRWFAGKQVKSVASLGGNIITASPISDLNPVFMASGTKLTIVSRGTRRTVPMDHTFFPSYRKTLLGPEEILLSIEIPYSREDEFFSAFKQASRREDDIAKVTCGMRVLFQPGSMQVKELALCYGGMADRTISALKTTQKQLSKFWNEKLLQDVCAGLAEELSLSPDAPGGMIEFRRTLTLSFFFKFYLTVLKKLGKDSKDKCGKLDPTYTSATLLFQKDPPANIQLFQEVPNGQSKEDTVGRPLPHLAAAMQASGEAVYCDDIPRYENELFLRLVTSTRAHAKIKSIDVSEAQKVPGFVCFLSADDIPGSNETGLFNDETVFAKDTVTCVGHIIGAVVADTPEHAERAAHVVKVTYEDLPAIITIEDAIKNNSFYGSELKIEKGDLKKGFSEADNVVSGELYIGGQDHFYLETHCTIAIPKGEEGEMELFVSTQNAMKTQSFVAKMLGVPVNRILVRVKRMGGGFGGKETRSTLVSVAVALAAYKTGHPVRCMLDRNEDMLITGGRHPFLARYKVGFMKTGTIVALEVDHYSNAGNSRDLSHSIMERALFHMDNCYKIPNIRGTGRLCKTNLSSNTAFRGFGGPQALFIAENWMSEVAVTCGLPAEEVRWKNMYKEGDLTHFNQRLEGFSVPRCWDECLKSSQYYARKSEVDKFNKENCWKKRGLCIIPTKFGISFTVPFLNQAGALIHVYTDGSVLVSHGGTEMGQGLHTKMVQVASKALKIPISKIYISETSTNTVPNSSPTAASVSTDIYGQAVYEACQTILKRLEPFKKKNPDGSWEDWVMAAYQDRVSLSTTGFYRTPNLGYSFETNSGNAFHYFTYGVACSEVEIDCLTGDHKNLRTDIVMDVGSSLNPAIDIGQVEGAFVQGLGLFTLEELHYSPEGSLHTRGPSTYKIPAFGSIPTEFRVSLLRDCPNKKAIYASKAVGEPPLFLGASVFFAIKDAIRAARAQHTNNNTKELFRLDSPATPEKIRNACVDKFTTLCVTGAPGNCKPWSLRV

Consider `Oc1ccc(/C=N/N=C/c2ccc(O)cc2)cc1` [Example 6, Bis[4-Hydroxybenzaldehyde]trans,trans-Azine], for which 13.5 µM corresponded to half-maximal inhibition in data set [1] (Neutrophil) (IC50). Besides, in the data set with Jurkat cells, the “Cytotox (MTT/Jurkat)” value stood at 0. Also, the “Xanthine Oxidase Inhibition IC50 (Integral)” value on Xanthine oxidase is “No Effect”.

In the case of `COc1cc(/C(C)=N/N=C(\C)c2cc(OC)c(O)c(OC)c2)cc(OC)c1O` [Example 9, Bis[3,5-Dimethoxy-4-Hydroxyacetophenone]trans,trans-Azine], the IC50 in data set [1] (Neutrophil) worked out at 8.7 µM; on Xanthine oxidase, 20 µM.

`COc1ccc(N=Cc2cc(C(C)(C)C)c(O)c(C(C)(C)C)c2)cc1` [Example 16, N-(3,5-di(tert-Butyl)-4-Hydroxybenzylidene)-p-Methoxyaniline]: the “Cytotox (MTT/Jurkat)” value in the data set with Jurkat cells was 0. The “Xanthine Oxidase Inhibition IC50 (Integral)” value at Xanthine oxidase is given as “No Effect”.

Turning to `COc1cccc(/C=N/N=C/c2cccc(OC)c2OC)c1OC` [Example 2, Bis[2,3-Dimethoxybenzaldehyde]trans,trans-Azine], the “Neutrophil Burst IC50 (Lucigenin)” value in data set [1] was “No Effect”. Also, on Xanthine oxidase, the “Xanthine Oxidase Inhibition IC50 (Integral)” value is listed as “No Effect”.

In the case of `CC(C)(C)c1cc(/C=N/N=C/c2cc(C(C)(C)C)c(O)c(C(C)(C)C)c2)cc(C(C)(C)C)c1O` [Example 14, Bis[3,5-(tert-Butyl)-4-Hydroxybenzaldehyde]trans,trans-Azine], the “Neutrophil Burst IC50 (Lucigenin)” value in data set [1] is on record as “No Effect”. Further, the “Xanthine Oxidase Inhibition IC50 (Integral)” value at Xanthine oxidase is on record as “No Effect”.

As for `COc1cc(/C=N/N=C/c2cc(Br)c(O)c(OC)c2)cc(Br)c1O` [Example 1, Bis[3-Bromo-4-Hydroxy-5-Methoxybenzaldehyde]trans,trans-Azine], the IC50 in data set [1] (Neutrophil) was 38 µM. Moreover, the “Cytotox (MTT/Jurkat)” value in the data set with Jurkat cells was 0.

In data set [1] (Neutrophil), `COc1cc(/C=N/N=C/c2ccccc2)ccc1O` [Example 13, N-[4-Hydroxy-3-Methoxybenzaldehyde]-N'-[Benzaldehyde]trans,trans-Azine] registered an IC50 of 44 µM. For the same compound, the “Cytotox (MTT/Jurkat)” value in the data set with Jurkat cells came to 0. Moreover, the “Xanthine Oxidase Inhibition IC50 (Integral)” value on Xanthine oxidase was “No Effect”.

Regarding `COc1cc(/C=N/N=C/c2cc(OC)c(O)c(OC)c2)cc(OC)c1O` [D, Bis[4-hydroxy-3,5-dimethoxybenzaldehyde]-trans,trans-azine], the “Cytotox (MTT/Jurkat)” value in the data set on Jurkat cells was 1 (dead cells and >50% reduction in MTT absorbance were observed at 100 μM of the test compound). The IC50 on Xanthine oxidase is 70 µM.

In the case of `COc1cc(C=Nc2ccccc2)cc(OC)c1O` [Example 23, N-(3,5-Dimethoxy-4-Hydroxybenzylidene)Aniline], the IC50 in data set [1] (Neutrophil) worked out at 5 µM; on Xanthine oxidase it was 14 µM.

With `COc1cc(C=Nc2nccs2)ccc1O` [B, 2-N'-(3-methoxy-4-hydroxybenzylidene)-2-amino-1,3-thiazole], the inhibition at 50 µM in data set [1] (Neutrophil, percent inhibition at 50 μM, single concentration, read-out: Neutrophil Burst Screen Value (% @ 50 μM)) was determined as 49.4%.

With `C(=N\N=C\c1ccncc1)/c1ccncc1` [Example 15, Bis[Pyridine-4-Carboxaldehyde]trans,trans-Azine], the “Neutrophil Burst IC50 (Lucigenin)” value in data set [1] is “No Effect”. Moreover, the “Xanthine Oxidase Inhibition IC50 (Integral)” value on Xanthine oxidase is given as “No Effect”.

As for `COc1ccc(/C=N/N=C/c2ccc(OC)c(OC)c2)cc1OC` [Example 5, Bis[3,4-Dimethoxybenzaldehyde]trans,trans-Azine], in data set [1], the “Neutrophil Burst IC50 (Lucigenin)” value was “No Effect”. The “Xanthine Oxidase Inhibition IC50 (Integral)” value at Xanthine oxidase is given as “No Effect”.

Take `CCOc1cc(/C=N/N=C/c2ccc(O)c(OCC)c2)ccc1O` [Example 8, Bis[3-Ethoxy-4-Hydroxybenzaldehyde]trans,trans-Azine]: in data set [1], the “Neutrophil Burst IC50 (Lucigenin)” value was “No Effect”.

`COc1cc(C=Nc2ccc(Br)cc2)cc(OC)c1O` [Example 20, N-(3,5-Dimethoxy-4-Hydroxybenzylidene)-p-Bromoaniline]: the values for the IC50 (in data set [1] (Neutrophil); at Xanthine oxidase) were 9.9 µM and 34 µM, respectively.

Regarding `COc1cc(C=Nc2ccc(F)cc2)cc(OC)c1O` [Example 19, N-(3,5-Dimethoxy-4-Hydroxybenzylidene)-p-Fluoroaniline], the IC50 in data set [1] (Neutrophil) was found to be 13.2 µM; on Xanthine oxidase it was 28 µM.

In data set [1] (Neutrophil), `COc1cc(/C=N/N=C/c2ccc(O)cc2)ccc1O` [Example 10, N-[4-Hydroxy-3-Methoxybenzaldehyde]-N'-[4-Hydroxybenzaldehyde]trans,trans-Azine] registered an IC50 of 8.5 µM. In addition, in the data set on Jurkat cells, the “Cytotox (MTT/Jurkat)” value is 0. The “Xanthine Oxidase Inhibition IC50 (Integral)” value at Xanthine oxidase is recorded as “No Effect”.

As for `COc1cc(C=Nc2nncs2)ccc1O` [Example 22, 5-N'-(3-Methoxy-4-Hydroxybenzylidene)-5-Amino-1,3,4-Thiadiazole], the IC50 in data set [1] (Neutrophil) turned out to be 15.5 µM; on Xanthine oxidase it was 16.3 µM.

In the case of `COc1ccc(/C=N/N=C/c2ccc(OC)c(O)c2)cc1O` [Example 4, Bis[3-Hydroxy-4-Methoxybenzaldehyde]trans,trans-Azine], the “Neutrophil Burst IC50 (Lucigenin)” value in data set [1] is listed as “No Effect”. On Xanthine oxidase, the “Xanthine Oxidase Inhibition IC50 (Integral)” value is reported as “No Effect”.

With `COc1ccc(/C=N/N=C/c2ccc(OC)cc2O)c(O)c1` [Example 3, Bis[2-Hydroxy-4-Methoxybenzaldehyde]trans,trans-Azine], the “Neutrophil Burst IC50 (Lucigenin)” value in data set [1] was “No Effect”. In addition, on Xanthine oxidase, the “Xanthine Oxidase Inhibition IC50 (Integral)” value was “No Effect”.

In the case of `COc1cccc(/C=N/N=C/c2cccc(OC)c2)c1` [Example 11, Bis[3-Methoxybenzaldehyde]trans,trans-Azine], the “Xanthine Oxidase Inhibition IC50 (Integral)” value on Xanthine oxidase is given as “No Effect”.

Take `COc1cc(C=Nc2nncs2)cc(OC)c1O` [Example 21, R-N'-(3,5-Dimethoxy-4-Hydroxybenzylidene)-5-Amino-1,3,4-Thiadiazole]: the 50% inhibitory concentration (IC50) in data set [1] (Neutrophil) was found to be 8 µM; on Xanthine oxidase, 2.1 µM.
